Source: publication PMC7343282, “Tissue Distribution of Several Series of Cationic Surfactants in Rainbow Trout (Oncorhynchus mykiss) Following Exposure via Water” (Environmental Science & Technology, 2020)

Test system: rainbow trout (Oncorhynchus mykiss)
Assay: Contribution of tissues to fish body burden
Format: in vivo
Conditions: for Contribution of Blood to the fish's body burden / Contribution of Gills to the fish's body burden / Contribution of Liver to the fish's body burden / Contribution of Mucus to the fish's body burden / Contribution of Other tissue (all apart from blood, liver, gills and skin; muscle concentration assumed) to body burden / Contribution of Skin to the fish's body burden: fraction; for % contribution to body burden, Gills / % contribution to body burden, Mucus / % contribution to body burden, Liver / % contribution to body burden, Skin / % contribution to body burden, Muscle: mean across fish, Figure 1; for % contribution to body burden, Liver / % contribution to body burden, Skin / % contribution to body burden, Muscle: Q10, Q14 maximum estimates; for % contribution to body burden, Muscle: includes all tissues not specifically analyzed
From the text: To calculate the quantity of the test chemical in the different tissues, the amount of each tissue in the fish was estimated and multiplied by the concentration in that tissue. The test chemical quantities in the different tissues were then summed to give the body burden in each fish. The total weight of the fish and the weight of the liver and gills were available from the dissection (Table S16). For skin and mucus, the estimated outer surface area of the fish was used. We note that the distinction between mucus and skin is an operational one determined by the extraction method; mucus can be viewed as a more readily extracted fraction of the test chemical residues at the fish surface. The volume of blood was taken as 0.0495 mL g^–1 fish.[30] The remaining tissue (difference between the weight of the whole fish and the weight of liver, gills, skin, and blood) was assumed to have the concentration measured in the muscle. The contribution of the different tissues to the body burden is given for each fish in Table S17, and the average contribution across all fish is plotted in Figure 1. All of the tissues, with the exception of blood, contribute at least 10% of the body burden for at least half of the test chemicals. There is no consistent negative correlation between the fraction of chemical associated with blood, muscle, and liver (tissues where the residue originates entirely from systemic uptake) and alkyl chain length (a measure of hydrophobicity). Thus, although adsorption to fish surfaces appears to play a significant role, its contribution to body burden cannot be simply predicted from surfactant hydrophobicity. In the following, we examine uptake in individual tissues.

## CCCCCCCCCCCCCN [P13, tridecylamine]
Fish #1
  Contribution of Blood to the fish's body burden: 0.013
  Contribution of Gills to the fish's body burden: 0.27
  Contribution of Liver to the fish's body burden: 0.24
  Contribution of Mucus to the fish's body burden: 0.14
  Contribution of Other tissue (all apart from blood, liver, gills and skin; muscle concentration assumed) to body burden: 0.17
  Contribution of Skin to the fish's body burden: 0.17
Fish #2
  Contribution of Blood to the fish's body burden: 0.014
  Contribution of Gills to the fish's body burden: 0.27
  Contribution of Liver to the fish's body burden: 0.23
  Contribution of Mucus to the fish's body burden: 0.10
  Contribution of Other tissue (all apart from blood, liver, gills and skin; muscle concentration assumed) to body burden: 0.17
  Contribution of Skin to the fish's body burden: 0.21
Fish #3
  Contribution of Blood to the fish's body burden: 0.016
  Contribution of Liver to the fish's body burden: 0.16
  Contribution of Mucus to the fish's body burden: 0.09
  Contribution of Other tissue (all apart from blood, liver, gills and skin; muscle concentration assumed) to body burden: 0.24
  Contribution of Skin to the fish's body burden: 0.20
Fish #4
  Contribution of Blood to the fish's body burden: 0.013
  Contribution of Gills to the fish's body burden: 0.35
  Contribution of Liver to the fish's body burden: 0.15
  Contribution of Mucus to the fish's body burden: 0.11
  Contribution of Other tissue (all apart from blood, liver, gills and skin; muscle concentration assumed) to body burden: 0.17
  Contribution of Skin to the fish's body burden: 0.21
Fish #5
  Contribution of Blood to the fish's body burden: 0.013
  Contribution of Gills to the fish's body burden: 0.28
  Contribution of Liver to the fish's body burden: 0.23
  Contribution of Mucus to the fish's body burden: 0.09
  Contribution of Other tissue (all apart from blood, liver, gills and skin; muscle concentration assumed) to body burden: 0.17
  Contribution of Skin to the fish's body burden: 0.23
Fish #6
  Contribution of Blood to the fish's body burden: 0.013
  Contribution of Gills to the fish's body burden: 0.26
  Contribution of Liver to the fish's body burden: 0.27
  Contribution of Mucus to the fish's body burden: 0.09
  Contribution of Other tissue (all apart from blood, liver, gills and skin; muscle concentration assumed) to body burden: 0.17
  Contribution of Skin to the fish's body burden: 0.20
Mean
  Contribution of Blood to the fish's body burden: 0.014
  Contribution of Gills to the fish's body burden: 0.28
  Contribution of Liver to the fish's body burden: 0.21
  Contribution of Mucus to the fish's body burden: 0.10
  Contribution of Other tissue (all apart from blood, liver, gills and skin; muscle concentration assumed) to body burden: 0.18
  Contribution of Skin to the fish's body burden: 0.20
  % contribution to body burden, Gills: 28%
  % contribution to body burden, Mucus: 10%
  % contribution to body burden, Liver: 21%
  % contribution to body burden, Skin: 20%
  % contribution to body burden, Muscle: 18%

## CCCCCCCCCCCCN [P12, Dodecylamine]
Fish #1
  Contribution of Blood to the fish's body burden: 0.014
  Contribution of Gills to the fish's body burden: 0.34
  Contribution of Liver to the fish's body burden: 0.16
  Contribution of Mucus to the fish's body burden: 0.19
  Contribution of Other tissue (all apart from blood, liver, gills and skin; muscle concentration assumed) to body burden: 0.15
  Contribution of Skin to the fish's body burden: 0.14
Fish #2
  Contribution of Blood to the fish's body burden: 0.015
  Contribution of Gills to the fish's body burden: 0.24
  Contribution of Liver to the fish's body burden: 0.22
  Contribution of Mucus to the fish's body burden: 0.12
  Contribution of Other tissue (all apart from blood, liver, gills and skin; muscle concentration assumed) to body burden: 0.16
  Contribution of Skin to the fish's body burden: 0.25
Fish #3
  Contribution of Blood to the fish's body burden: 0.017
  Contribution of Liver to the fish's body burden: 0.20
  Contribution of Mucus to the fish's body burden: 0.11
  Contribution of Other tissue (all apart from blood, liver, gills and skin; muscle concentration assumed) to body burden: 0.16
  Contribution of Skin to the fish's body burden: 0.23
Fish #4
  Contribution of Blood to the fish's body burden: 0.011
  Contribution of Gills to the fish's body burden: 0.26
  Contribution of Liver to the fish's body burden: 0.24
  Contribution of Mucus to the fish's body burden: 0.14
  Contribution of Other tissue (all apart from blood, liver, gills and skin; muscle concentration assumed) to body burden: 0.16
  Contribution of Skin to the fish's body burden: 0.19
Fish #5
  Contribution of Blood to the fish's body burden: 0.010
  Contribution of Gills to the fish's body burden: 0.32
  Contribution of Liver to the fish's body burden: 0.12
  Contribution of Mucus to the fish's body burden: 0.17
  Contribution of Other tissue (all apart from blood, liver, gills and skin; muscle concentration assumed) to body burden: 0.20
  Contribution of Skin to the fish's body burden: 0.18
Fish #6
  Contribution of Blood to the fish's body burden: 0.018
  Contribution of Gills to the fish's body burden: 0.26
  Contribution of Liver to the fish's body burden: 0.16
  Contribution of Mucus to the fish's body burden: 0.18
  Contribution of Other tissue (all apart from blood, liver, gills and skin; muscle concentration assumed) to body burden: 0.12
  Contribution of Skin to the fish's body burden: 0.26
Mean
  Contribution of Blood to the fish's body burden: 0.014
  Contribution of Gills to the fish's body burden: 0.28
  Contribution of Liver to the fish's body burden: 0.19
  Contribution of Mucus to the fish's body burden: 0.15
  Contribution of Other tissue (all apart from blood, liver, gills and skin; muscle concentration assumed) to body burden: 0.16
  Contribution of Skin to the fish's body burden: 0.21
  % contribution to body burden, Gills: 28%
  % contribution to body burden, Mucus: 15%
  % contribution to body burden, Liver: 19%
  % contribution to body burden, Skin: 21%
  % contribution to body burden, Muscle: 16%

## CCCCCCCCCCCCCN(C)C [T13, N,N-dimethyltridecylamine]
Fish #1
  Contribution of Blood to the fish's body burden: 0.038
  Contribution of Gills to the fish's body burden: 0.28
  Contribution of Liver to the fish's body burden: 0.05
  Contribution of Mucus to the fish's body burden: 0.11
  Contribution of Other tissue (all apart from blood, liver, gills and skin; muscle concentration assumed) to body burden: 0.36
  Contribution of Skin to the fish's body burden: 0.17
Fish #2
  Contribution of Blood to the fish's body burden: 0.031
  Contribution of Gills to the fish's body burden: 0.26
  Contribution of Liver to the fish's body burden: 0.09
  Contribution of Mucus to the fish's body burden: 0.09
  Contribution of Other tissue (all apart from blood, liver, gills and skin; muscle concentration assumed) to body burden: 0.29
  Contribution of Skin to the fish's body burden: 0.24
Fish #3
  Contribution of Blood to the fish's body burden: 0.038
  Contribution of Liver to the fish's body burden: 0.11
  Contribution of Mucus to the fish's body burden: 0.07
  Contribution of Other tissue (all apart from blood, liver, gills and skin; muscle concentration assumed) to body burden: 0.31
  Contribution of Skin to the fish's body burden: 0.22
Fish #4
  Contribution of Blood to the fish's body burden: 0.023
  Contribution of Gills to the fish's body burden: 0.22
  Contribution of Liver to the fish's body burden: 0.21
  Contribution of Mucus to the fish's body burden: 0.07
  Contribution of Other tissue (all apart from blood, liver, gills and skin; muscle concentration assumed) to body burden: 0.32
  Contribution of Skin to the fish's body burden: 0.17
Fish #5
  Contribution of Blood to the fish's body burden: 0.025
  Contribution of Gills to the fish's body burden: 0.30
  Contribution of Liver to the fish's body burden: 0.07
  Contribution of Mucus to the fish's body burden: 0.09
  Contribution of Other tissue (all apart from blood, liver, gills and skin; muscle concentration assumed) to body burden: 0.31
  Contribution of Skin to the fish's body burden: 0.21
Fish #6
  Contribution of Blood to the fish's body burden: 0.042
  Contribution of Gills to the fish's body burden: 0.24
  Contribution of Liver to the fish's body burden: 0.06
  Contribution of Mucus to the fish's body burden: 0.11
  Contribution of Other tissue (all apart from blood, liver, gills and skin; muscle concentration assumed) to body burden: 0.29
  Contribution of Skin to the fish's body burden: 0.25
Mean
  Contribution of Blood to the fish's body burden: 0.033
  Contribution of Gills to the fish's body burden: 0.26
  Contribution of Liver to the fish's body burden: 0.10
  Contribution of Mucus to the fish's body burden: 0.09
  Contribution of Other tissue (all apart from blood, liver, gills and skin; muscle concentration assumed) to body burden: 0.31
  Contribution of Skin to the fish's body burden: 0.21
  % contribution to body burden, Gills: 26%
  % contribution to body burden, Mucus: 9%
  % contribution to body burden, Liver: 10%
  % contribution to body burden, Skin: 21%
  % contribution to body burden, Muscle: 31%
